Assay results from US7091311B2, “Peptides and compounds that bind to a receptor” (SmithKline Beecham Corporation, priority 1996, dated 2006).
Where two headings read alike, the source gives them in different places. Where a SMILES comes first, the peptide text is derived from it.

Target: T1, TPO-R (Homo sapiens, UniProt P40238)
T1 construct: made in house
T1 sequence (P40238 26-491 limits assumed): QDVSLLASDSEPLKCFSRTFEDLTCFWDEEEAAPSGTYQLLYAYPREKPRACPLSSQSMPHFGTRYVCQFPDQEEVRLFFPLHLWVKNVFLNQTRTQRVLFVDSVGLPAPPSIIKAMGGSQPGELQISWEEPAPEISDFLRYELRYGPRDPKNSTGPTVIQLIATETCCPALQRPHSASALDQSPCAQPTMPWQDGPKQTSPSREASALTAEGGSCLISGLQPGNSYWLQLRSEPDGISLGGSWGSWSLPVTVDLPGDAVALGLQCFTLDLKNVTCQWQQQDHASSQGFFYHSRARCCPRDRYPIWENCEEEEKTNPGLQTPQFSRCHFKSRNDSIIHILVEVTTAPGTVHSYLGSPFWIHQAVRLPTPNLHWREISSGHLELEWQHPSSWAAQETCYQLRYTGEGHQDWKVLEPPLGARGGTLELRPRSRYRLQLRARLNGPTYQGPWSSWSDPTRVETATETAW
Experiment: competition binding assay: MBP-TPO156 binding to immobilized TPO-R (ELISA)
Details: read-out: IC50
Description: A variety of methods can be used to evaluate IC50 values. For example, an equilibrium binding ELISA assay, using either MBP-TPO or lacI-peptide tracer, was used to determine whether the peptides inhibit the binding of TPO to the extracellular domain of the TPO receptor. Typically, the IC50 value were determined using the free peptide. The IC50value can be determined using the free peptide, which optionally can be C-terminally amidated, or can be prepared as an ester or other carboxy amide.
Binding affinities of chemically synthesized peptides for TPO-R were measured in a competition binding assay. The wells of a microtiter plate were coated with 1 mg streptavidin, blocked with PBS/1% BSA, followed by 50 ng of biotinylated anti-receptor immobilizing antibody (Ab179). The wells were then treated with a 1:10 dilution of soluble TPO-R harvest. Various concentrations of peptide or peptide mimetic were mixed with a constant amount of a truncated form of TPO consisting of residues 1–156 fused to the C-terminus of maltose binding protein (MBP-TPO156). The peptide MBP-TPO156 mixtures were added to the TPO-R coated wells, incubated for 2 hours at 4° C. and then washed with PBS. The amount of MBP-TPO156 that was bound at equilibrium was measured by adding a rabbit anti-sera directed against MBP, followed by alkaline phosphatase conjugated goat anti-rabbit IgG. The amount of alkaline phosphatase in each well was then determined using standard methods.
The assay is conducted over a range of peptide concentrations and the results are graphed such that the y axis represents the amount of bound MBP-TPO156 and the x axis represents the concentration of peptide or peptide mimetic.

Compound	IC50 (Table 7, dimer compounds) [nM]	further results
CC[C@H](C)[C@@H]1NC(=O)[C@H](Cc2c[nH]c3ccccc23)NC(=O)[C@H](CCC(=O)O)NC(=O)[C@H](CCCNC(=N)N)NC(=O)[C@H](CC(C)C)NC(=O)[C@H]([C@@H](C)O)NC(=O)[C@@H]2CCCN2C(=O)CNC(=O)[C@H](CC(=O)O)NC(=O)[C@H](C)NC(=O)CSC[C@@H](C(N)=O)NC(=O)[C@H](Cc2ccccc2)NC(=O)[C@H](CO)NC1=O (HELM PEPTIDE1{[O=C(C[*:3])[*:2]].A.D.G.P.T.L.R.E.W.I.S.F.C.[am]}$PEPTIDE1,PEPTIDE1,1:R3-14:R3$$$V2.0)		IC50 (Table 4, cyclized compounds): ≤ 500 nM
CC[C@H](C)[C@H](NC(=O)[C@H](Cc1c[nH]c2ccccc12)NC(=O)[C@H](CCC(=O)O)NC(=O)[C@H](CCCNC(=N)N)NC(=O)[C@H](CC(C)C)NC(=O)[C@@H](NC(=O)[C@@H]1CCCN1C(=O)CNC(=O)[C@H](CC(=O)O)NC(C)=O)[C@@H](C)O)C(=O)N[C@@H](CO)C(=O)N[C@@H](Cc1ccccc1)C(=O)N[C@@H](CSSC[C@H](NC(=O)[C@H](Cc1ccccc1)NC(=O)[C@H](CO)NC(=O)[C@@H](NC(=O)[C@H](Cc1c[nH]c2ccccc12)NC(=O)[C@H](CCC(=O)O)NC(=O)[C@H](CCCNC(=N)N)NC(=O)[C@H](CC(C)C)NC(=O)[C@@H](NC(=O)[C@@H]1CCCN1C(=O)CNC(=O)[C@H](CC(=O)O)NC(C)=O)[C@@H](C)O)[C@@H](C)CC)C(N)=O)C(N)=O (HELM PEPTIDE1{[ac].D.G.P.T.L.R.E.W.I.S.F.C.[am]}|PEPTIDE2{[ac].D.G.P.T.L.R.E.W.I.S.F.C.[am]}$PEPTIDE1,PEPTIDE2,13:R3-13:R3$$$V2.0; C-terminus assumed)	≤ 500	
CC[C@H](C)[C@H](NC(=O)[C@H](Cc1c[nH]c2ccccc12)NC(=O)[C@H](CCC(=O)O)NC(=O)[C@H](CCCNC(=N)N)NC(=O)[C@H](CC(C)C)NC(=O)[C@@H](NC(=O)[C@@H]1CCCN1C(=O)CNC(C)=O)[C@@H](C)O)C(=O)N[C@@H](CO)C(=O)N[C@@H](Cc1ccccc1)C(=O)N[C@@H](CSSC[C@H](NC(=O)[C@H](Cc1ccccc1)NC(=O)[C@H](CO)NC(=O)[C@@H](NC(=O)[C@H](Cc1c[nH]c2ccccc12)NC(=O)[C@H](CCC(=O)O)NC(=O)[C@H](CCCNC(=N)N)NC(=O)[C@H](CC(C)C)NC(=O)[C@@H](NC(=O)[C@@H]1CCCN1C(=O)CNC(C)=O)[C@@H](C)O)[C@@H](C)CC)C(N)=O)C(N)=O (HELM PEPTIDE1{[ac].G.P.T.L.R.E.W.I.S.F.C.[am]}|PEPTIDE2{[ac].G.P.T.L.R.E.W.I.S.F.C.[am]}$PEPTIDE1,PEPTIDE2,12:R3-12:R3$$$V2.0; C-terminus assumed)	≤ 500	
CC[C@H](C)[C@H](NC(=O)[C@H](Cc1c[nH]c2ccccc12)NC(=O)[C@H](CCC(=O)O)NC(=O)[C@H](CCCNC(=N)N)NC(=O)[C@H](CC(C)C)NC(=O)[C@@H](NC(=O)[C@@H]1CCCN1C(C)=O)[C@@H](C)O)C(=O)N[C@@H](CO)C(=O)N[C@@H](Cc1ccccc1)C(=O)N[C@@H](CSSC[C@H](NC(=O)[C@H](Cc1ccccc1)NC(=O)[C@H](CO)NC(=O)[C@@H](NC(=O)[C@H](Cc1c[nH]c2ccccc12)NC(=O)[C@H](CCC(=O)O)NC(=O)[C@H](CCCNC(=N)N)NC(=O)[C@H](CC(C)C)NC(=O)[C@@H](NC(=O)[C@@H]1CCCN1C(C)=O)[C@@H](C)O)[C@@H](C)CC)C(N)=O)C(N)=O (HELM PEPTIDE1{[ac].P.T.L.R.E.W.I.S.F.C.[am]}|PEPTIDE2{[ac].P.T.L.R.E.W.I.S.F.C.[am]}$PEPTIDE1,PEPTIDE2,11:R3-11:R3$$$V2.0; C-terminus assumed)	≤ 500	
CC[C@H](C)[C@H](NC(=O)[C@H](Cc1c[nH]c2ccccc12)NC(=O)[C@H](CCC(=O)O)NC(=O)[C@H](CCCNC(=N)N)NC(=O)[C@H](CC(C)C)NC(=O)[C@@H](NC(C)=O)[C@@H](C)O)C(=O)N[C@@H](CO)C(=O)N[C@@H](Cc1ccccc1)C(=O)N[C@@H](CSSC[C@H](NC(=O)[C@H](Cc1ccccc1)NC(=O)[C@H](CO)NC(=O)[C@@H](NC(=O)[C@H](Cc1c[nH]c2ccccc12)NC(=O)[C@H](CCC(=O)O)NC(=O)[C@H](CCCNC(=N)N)NC(=O)[C@H](CC(C)C)NC(=O)[C@@H](NC(C)=O)[C@@H](C)O)[C@@H](C)CC)C(N)=O)C(N)=O (HELM PEPTIDE1{[ac].T.L.R.E.W.I.S.F.C.[am]}|PEPTIDE2{[ac].T.L.R.E.W.I.S.F.C.[am]}$PEPTIDE1,PEPTIDE2,10:R3-10:R3$$$V2.0; C-terminus assumed)	200000	
CC[C@H](C)[C@@H]1NC(=O)[C@H](Cc2c[nH]c3ccccc23)NC(=O)[C@H](CCC(=O)O)NC(=O)[C@H](CCCNC(=N)N)NC(=O)[C@H](CC(C)C)NC(=O)[C@H]([C@@H](C)O)NC(=O)[C@@H]2CCCN2C(=O)CNC(=O)[C@H](CC(=O)O)NC(=O)[C@H](C)NC(=O)CSC[C@@H](C(=O)NCC(N)=O)NC(=O)[C@H](Cc2ccccc2)NC(=O)[C@H](CO)NC1=O [C-term, Gly addition] (HELM PEPTIDE1{[O=C(C[*:3])[*:2]].A.D.G.P.T.L.R.E.W.I.S.F.C.G.[am]}$PEPTIDE1,PEPTIDE1,1:R3-14:R3$$$V2.0; C-terminus assumed)		IC50 (Table 6): ≤ 500 nM

Now from value to molecule, other results behind:

IC50 (Table 7, dimer compounds) [nM]	Compound	further results
200000	CSCC[C@H](N)C(=O)N[C@H](C(=O)NCC(=O)N1CCC[C@H]1C(=O)N[C@H](C(=O)N[C@@H](CC(C)C)C(=O)N[C@@H](CCCNC(=N)N)C(=O)N[C@@H](CO)C(=O)NCC(=O)N[C@@H](CSSC[C@H](NC(=O)CNC(=O)[C@H](CO)NC(=O)[C@H](CCCNC(=N)N)NC(=O)[C@H](CC(C)C)NC(=O)[C@@H](NC(=O)[C@@H]1CCCN1C(=O)CNC(=O)[C@@H](NC(=O)[C@@H](N)CCSC)C(C)C)[C@@H](C)O)C(N)=O)C(N)=O)[C@@H](C)O)C(C)C (HELM PEPTIDE1{M.V.G.P.T.L.R.S.G.C.[am]}|PEPTIDE2{M.V.G.P.T.L.R.S.G.C.[am]}$PEPTIDE1,PEPTIDE2,10:R3-10:R3$$$V2.0)	
≤ 500	CC(C)C[C@H](NC(=O)[C@H](Cc1c[nH]c2ccccc12)NC(=O)[C@H](CCC(N)=O)NC(=O)[C@H](CCCNC(=N)N)NC(=O)[C@H](CC(C)C)NC(=O)[C@@H](NC(=O)[C@@H]1CCCN1C(=O)CNC(=O)[C@H](CSSC[C@H](NC(=O)[C@H](CCC(N)=O)NC(=O)[C@@H](NC(=O)[C@@H](N)CO)C(C)C)C(=O)NCC(=O)N1CCC[C@H]1C(=O)N[C@H](C(=O)N[C@@H](CC(C)C)C(=O)N[C@@H](CCCNC(=N)N)C(=O)N[C@@H](CCC(N)=O)C(=O)N[C@@H](Cc1c[nH]c2ccccc12)C(=O)N[C@@H](CC(C)C)C(=O)N[C@@H](C)C(=O)N[C@@H](C)C(=O)N[C@@H](CCCNC(=N)N)C(=O)N[C@@H](CC(N)=O)C(=O)N[C@@H](Cc1c[nH]cn1)C(=O)N[C@@H](CC(C)C)C(=O)N[C@@H](CO)C(N)=O)[C@@H](C)O)NC(=O)[C@H](CCC(N)=O)NC(=O)[C@@H](NC(=O)[C@@H](N)CO)C(C)C)[C@@H](C)O)C(=O)N[C@@H](C)C(=O)N[C@@H](C)C(=O)N[C@@H](CCCNC(=N)N)C(=O)N[C@@H](CC(N)=O)C(=O)N[C@@H](Cc1c[nH]cn1)C(=O)N[C@@H](CC(C)C)C(=O)N[C@@H](CO)C(N)=O (HELM PEPTIDE1{S.V.Q.C.G.P.T.L.R.Q.W.L.A.A.R.N.H.L.S.[am]}|PEPTIDE2{S.V.Q.C.G.P.T.L.R.Q.W.L.A.A.R.N.H.L.S.[am]}$PEPTIDE1,PEPTIDE2,4:R3-4:R3$$$V2.0)	
≤ 500	CC[C@H](C)[C@H](NC(=O)[C@H](Cc1c[nH]c2ccccc12)NC(=O)[C@H](CCC(=O)O)NC(=O)[C@H](CCCNC(=N)N)NC(=O)[C@H](CC(C)C)NC(=O)[C@@H](NC(=O)[C@@H]1CCCN1C(=O)CNC(=O)[C@H](CC(=O)O)NC(=O)[C@H](C)NC(C)=O)[C@@H](C)O)C(=O)N[C@@H](CO)C(=O)N[C@@H](Cc1ccccc1)C(=O)N[C@@H](CSSC[C@H](NC(=O)[C@H](Cc1ccccc1)NC(=O)[C@H](CO)NC(=O)[C@@H](NC(=O)[C@H](Cc1c[nH]c2ccccc12)NC(=O)[C@H](CCC(=O)O)NC(=O)[C@H](CCCNC(=N)N)NC(=O)[C@H](CC(C)C)NC(=O)[C@@H](NC(=O)[C@@H]1CCCN1C(=O)CNC(=O)[C@H](CC(=O)O)NC(=O)[C@H](C)NC(C)=O)[C@@H](C)O)[C@@H](C)CC)C(N)=O)C(N)=O (HELM PEPTIDE1{[ac].A.D.G.P.T.L.R.E.W.I.S.F.C.[am]}|PEPTIDE2{[ac].A.D.G.P.T.L.R.E.W.I.S.F.C.[am]}$PEPTIDE1,PEPTIDE2,14:R3-14:R3$$$V2.0; C-terminus assumed)	
